Reference: patent US20250282799A1, “SUBSTITUTED PYRIDO[4,3-d]PYRIMIDINES AS KRAS MODULATORS” (Alterome Therapeutics, Inc., priority 2023, published 2025)

tested on: KRAS G12V dependent lung adenocarcinoma cell line, NCI-H441; assay: Cellular pERK (Thr202/Tyr204) FRET/HTRF assay; format: cell-based; details: Homo sapiens, NCI-H441, cellular pERK (Thr202/Tyr204) HTRF, NCI-H441 cells
Outline: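 NCI-H441 cells (KRAS G12V) plated overnight at 37 °C, then exposed to compounds for 1 hr at 37 °C, 5% CO2; DMSO as negative control. Lysates read by Eu-cryptate/d2 sandwich FRET (665 nm) for ERK1/2 phosphorylated at Thr202/Tyr204; IC50 from curve fit.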

Row | Structure (SMILES) | IC50
1 | C#Cc1c(F)ccc2cc(O)cc(-c3ncc4c(N5CCCO[C@H]6C[C@H]65)nc(OC[C@@]5(C)CCCN5)nc4c3F)c12 [Example 281, 4-(4-((1S,7R)-2-oxa-6-azabicyclo[5.1.0]octan-6-yl)-8-fluoro-2-(((R)-2-methylpyrrolidin-2-yl)methoxy)pyrido[4,3-d]pyrimidin-7-yl)-5-ethynyl-6-fluoronaphthalen-2-ol] | 500 to 10000 nM
2 | C#Cc1c(F)ccc2cc(N)cc(-c3ncc4c(N5CCOC[C@H]6[C@H](F)[C@H]65)nc(OC[C@]56C/C(=C/F)CN5CCC65CC5)nc4c3F)c12 [Example 363, 5-Ethynyl-6-fluoro-4-(8-fluoro-4-((1S,7S,8S)-8-fluoro-5-oxa-2-azabicyclo[5.1.0]octan-2-yl)-2-(((R,Z)-6′-(fluoromethylene)tetrahydrospiro[cyclopropane-1,1′-pyrrolizin]-7a′(5′H)-yl)methoxy)pyrido[4,3-d]pyrimidin-7-yl)naphthalen-2-amine] | < 50 nM
3 | [2H]C([2H])(F)Oc1c(F)c(F)c(F)c2cc(N)cc(-c3ncc4c(N5CCOC[C@H]6[C@H](F)[C@H]65)nc(OC([2H])([2H])[C@@]56CCCN5C[C@H](F)C6)nc4c3F)c12 [Example 128, 6,7,8-trifluoro-4-(8-fluoro-4-((1S,7S,8S)-8-fluoro-5-oxa-2-azabicyclo[5.1.0]octan-2-yl)-2-(((2R,7aS)-2-fluorotetrahydro-1H-pyrrolizin-7a(5H)-yl)methoxy-d2)pyrido[4,3-d]pyrimidin-7-yl)-5-(fluoromethoxy-d2)naphthalen-2-amine] | < 50 nM
4 | C#Cc1c(C(F)(F)F)ccc2cccc(-c3ncc4c(N5CCOC[C@H]6[C@H](F)[C@H]65)nc(OC[C@]56C[C@@H](F)CN5C[C@@H](CN)C6)nc4c3F)c12 [Example 336, ((2R,6R,7aS)-7a-(((7-(8-ethynyl-7-(trifluoromethyl)naphthalen-1-yl)-8-fluoro-4-((1S,7S,8S)-8-fluoro-5-oxa-2-azabicyclo[5.1.0]octan-2-yl)pyrido[4,3-d]pyrimidin-2-yl)oxy)methyl)-6-fluorohexahydro-1H-pyrrolizin-2-yl)methanamine] | 500 to 10000 nM
5 | [2H]C([2H])(F)Oc1c(F)ccc2cc(N)cc(-c3ncc4c(N5CCCC[C@H]6[C@H](F)[C@H]65)nc(OC[C@]56C/C(=C\F)CN5CCC65CC5)nc4c3F)c12 [Example 383, 6-fluoro-4-(8-fluoro-4-((1S,7R,8S)-8-fluoro-2-azabicyclo[5.1.0]octan-2-yl)-2-(((R,E)-6′-(fluoromethylene)tetrahydrospiro[cyclopropane-1,1′-pyrrolizin]-7a′(5′H)-yl)methoxy)pyrido[4,3-d]pyrimidin-7-yl)-5-(fluoromethoxy-d2)naphthalen-2-amine] | < 50 nM
6 | [2H]C([2H])(Oc1nc(N2CCCC[C@H]3[C@H](F)[C@H]32)c2cnc(-c3nc(N)cc4ccc(F)c(Cl)c34)c(F)c2n1)[C@@]12CCCN1C[C@H](F)C2 [Example 153, 8-chloro-7-fluoro-1-(8-fluoro-4-((1S,7R,8S)-8-fluoro-2-azabicyclo[5.1.0]octan-2-yl)-2-(((2R,7aS)-2-fluorotetrahydro-1H-pyrrolizin-7a(5H)-yl)methoxy-d2)pyrido[4,3-d]pyrimidin-7-yl)isoquinolin-3-amine] | 50 to 500 nM
7 | [2H]C([2H])(F)Oc1c(F)ccc2cccc(-c3ncc4c(N5CCOC[C@H]6[C@H](F)[C@H]65)nc(OC[C@]56C/C(=C/F)CN5CCC65CC5)nc4c3F)c12 [Example 386, (1S,7S,8S)-8-fluoro-2-(8-fluoro-7-(7-fluoro-8-(fluoromethoxy-d2)naphthalen-1-yl)-2-(((R,Z)-6′-(fluoromethylene)tetrahydrospiro[cyclopropane-1,1′-pyrrolizin]-7a′(5′H)-yl)methoxy)pyrido[4,3-d]pyrimidin-4-yl)-5-oxa-2-azabicyclo[5.1.0]octane] | < 50 nM
8 | [2H]C([2H])(Oc1nc(N2CCOC[C@@H]3[C@H]2[C@@]3([2H])F)c2cnc(-c3cccc4cc(F)c(F)c(C#C)c34)c(F)c2n1)[C@@]12CCCN1C[C@H](F)C2 [Example 122, (1S,7S,8S)-2-(7-(8-ethynyl-6,7-difluoronaphthalen-1-yl)-8-fluoro-2-(((2R,7aS)-2-fluorotetrahydro-1H-pyrrolizin-7a(5H)-yl)methoxy-d2)pyrido[4,3-d]pyrimidin-4-yl)-8-fluoro-5-oxa-2-azabicyclo[5.1.0]octane-8-d] | < 50 nM
9 | [2H]C([2H])(Oc1nc(N2CCCO[C@H]3[C@H](F)[C@H]32)c2cnc(-c3cc(N)cc4c(F)cc(F)c(C#C)c34)c(F)c2n1)[C@@]12CCCN1C[C@H](F)C2 [Example 117, 5-ethynyl-6,8-difluoro-4-(8-fluoro-4-((1R,7S,8R)-8-fluoro-2-oxa-6-azabicyclo[5.1.0]octan-6-yl)-2-(((2R,7aS)-2-fluorotetrahydro-1H-pyrrolizin-7a(5H)-yl)methoxy-d2)pyrido[4,3-d]pyrimidin-7-yl)naphthalen-2-amine] | < 50 nM

same assay, conditions: Homo sapiens, NCI-H441, cellular pERK HTRF, NCI-H441 (KRAS G12V) cells

Row | Structure (SMILES) | IC50
10 | C#Cc1c(F)ccc2cc(N)cc(-c3ncc4c(N5CCOC[C@H]6[C@H](F)[C@H]65)nc(OCC56CCN5CC(F)(F)C6)nc4c3F)c12 (stereo partly drawn) [Example 476, 4-(2-((3,3-difluoro-1-azabicyclo[3.2.0]heptan-5-yl)methoxy)-8-fluoro-4-((1S,7S,8S)-8-fluoro-5-oxa-2-azabicyclo[5.1.0]octan-2-yl)pyrido[4,3-d]pyrimidin-7-yl)-5-ethynyl-6-fluoronaphthalen-2-amine] | < 50 nM
11 | [2H]C([2H])(Oc1nc(N2CCCC[C@H]3[C@H](F)[C@H]32)c2cnc(-c3cc(N)cc4ccc(F)c(C#C)c34)c(C)c2n1)[C@@]12CCCN1CC(=C)C2 [Example 457, 5-Ethynyl-6-fluoro-4-(4-((1S,7R,8S)-8-fluoro-2-azabicyclo[5.1.0]octan-2-yl)-8-methyl-2-(((S)-2-methylenetetrahydro-1H-pyrrolizin-7a(5H)-yl)methoxy-d2)pyrido[4,3-d]pyrimidin-7-yl)naphthalen-2-amine] | < 50 nM

same assay, conditions: Homo sapiens, NCI-H441, pERK HTRF, NCI-H441 cells (KRAS G12V)

Row | Structure (SMILES) | IC50
12 | [2H]C([2H])(Oc1nc(N2CCCO[C@H]3C[C@H]32)c2cnc(-c3cc(N)cc4cc(F)c(F)c(C#C)c34)c(F)c2n1)[C@@]12CCCN1C[C@H](F)C2 [Example 17, 4-(4-((1S,7R)-2-Oxa-6-azabicyclo[5.1.0]octan-6-yl)-8-fluoro-2-(((2R,7aS)-2-fluorotetrahydro-1H-pyrrolizin-7a(5H)-yl)methoxy-d2)pyrido[4,3-d]pyrimidin-7-yl)-5-ethynyl-6,7-difluoronaphthalen-2-amine] | < 50 nM
13 | [2H]C([2H])(Oc1nc(N2CCC[C@@H]3[C@@H](F)[C@@H]32)c2cnc(-c3cc(N)cc4cc(F)c(F)c(C#C)c34)c(F)c2n1)[C@@]12CCCN1C[C@H](F)C2 [Example 53, 5-Ethynyl-6,7-difluoro-4-(8-fluoro-4-((1R,6S,7R)-7-fluoro-2-azabicyclo[4.1.0]heptan-2-yl)-2-(((2R,7aS)-2-fluorotetrahydro-1H-pyrrolizin-7a(5H)-yl)methoxy-d2)pyrido[4,3-d]pyrimidin-7-yl)naphthalen-2-amine] | 50 to 500 nM
14 | [2H]C([2H])(Oc1nc(N2CCCO[C@@H]3C[C@@H]32)c2cnc(-c3ccc(F)c4sc(N)c(C#N)c34)c(F)c2n1)[C@@]12CCCN1C[C@H](F)C2 [Example 40, 4-(4-((1R,7S)-2-Oxa-6-azabicyclo[5.1.0]octan-6-yl)-8-fluoro-2-(((2R,7aS)-2-fluorotetrahydro-1H-pyrrolizin-7a(5H)-yl)methoxy-d2)pyrido[4,3-d]pyrimidin-7-yl)-2-amino-7-fluorobenzo[b]thiophene-3-carbonitrile] | 500 to 10000 nM
